The record followed here is US20230270745A1 (Seagen Inc., priority 2020, published 2023).

Assay [1] concerns CTG-0784 HER2 positive CRC PDX model. In words: CTG-0784 CRC PDX model, tumor growth inhibition. In kind it is in vivo, Mice. Conditions: study day 29; tucatinib 50 mg/kg orally twice per day, trastuzumab 20 mg/kg intraperitoneally once every three days. The protocol: (§1) The TGI index is calculated for a particular time point (e.g., a specific number of days into an experiment or clinical trial) according to the following formula: […]
(§2) where “Tx Day 0” denotes the first day that treatment is administered (i.e., the first day that an experimental therapy or a control therapy (e.g., vehicle only) is administered) and “Tx Day X” denotes X number of days after Day 0. […] As a non-limiting example, in an experiment where study day 0 corresponds to “Tx Day 0” and the TGI index is calculated on study day 28 (i.e., “Tx Day 28”), if the mean tumor volume in both groups on study day 0 is 250 mm^3 and the mean tumor volumes in the experimental and control groups are 125 mm^3 and 750 mm^3, respectively, then the TGI index on day 28 is 125%.
(§3) Tucatinib was administered orally at a dose of 50 mg/kg twice per day for 28 days (study days 0-27). […] A vehicle-only group was included as a negative control.

Assay [2] concerns NCI-H2170 NSCLC xenograft model. The experiment in a line: NCI-H2170 NSCLC xenograft model, tumor growth inhibition. The assay is classed as in vivo, Mice. To be noted: study day 39; tucatinib 50 mg/kg orally twice per day for 21 days, trastuzumab 20 mg/kg intraperitoneally twice per week, from study day 18. The protocol: as §1, §2
(§4) For the Calu-3 study, tucatinib was administered orally at a dose of 50 mg/kg twice per day for 21 days, beginning on study day 7. […] A vehicle-only group was included as a negative control.
For the NCI-H2170 study, tucatinib was administered orally at a dose of 50 mg/kg twice per day for 21 days, beginning on study day 18. […] A vehicle-only group was included as a negative control.

For assay [3], the system named is GXA 3054 HER2 positive gastric cancer PDX model. In words: GXA 3054 gastric cancer PDX model, tumor growth inhibition. In kind it is in vivo, Mice. To be noted: study day 17; tucatinib 50 mg/kg orally twice per day, trastuzumab 20 mg/kg intraperitoneally once every three days. The protocol:
as §1, §2, §3

For another assay, the system named is Calu-3 cells. The experiment in a line: Response of Calu-3 cells to tucatinib in vitro. In kind it is cell-based. To be noted: previously demonstrated.
For assay [4], the system named is CTG-0927 HER2 positive cholangiocarcinoma PDX model. The experiment in a line: CTG-0927 cholangiocarcinoma PDX model, tumor growth inhibition. In kind it is in vivo, Mice. To be noted: study day 28; tucatinib 50 mg/kg orally twice per day, trastuzumab 20 mg/kg intraperitoneally once every three days. The protocol:
as §1, §2, §3

Assay [5] concerns GXA 3038 HER2 positive gastric cancer PDX model. In words: GXA 3038 gastric cancer PDX model, tumor growth inhibition. The assay is classed as in vivo, Mice. Conditions: study day 28; tucatinib 50 mg/kg orally twice per day, trastuzumab 20 mg/kg intraperitoneally once every three days. How it is done:
as §1, §2, §3

A further assay concerns NCI-H2170 cells. In words: Response of NCI-H2170 cells to tucatinib in vitro. In kind it is cell-based. To be noted: previously demonstrated.
Assay [6] concerns CTG-0137 HER2 positive esophageal cancer PDX model. The experiment in a line: CTG-0137 esophageal cancer PDX model, tumor growth inhibition. In kind it is in vivo, Mice. Conditions: study day 15; tucatinib 50 mg/kg orally twice per day, trastuzumab 20 mg/kg intraperitoneally once every three days. How it is done:
as §1, §2, §3

The test system of assay [7] is CTG-0138 HER2 positive esophageal cancer PDX model. In words: CTG-0138 esophageal cancer PDX model, tumor growth inhibition. In kind it is in vivo, Mice. To be noted: study day 30; tucatinib 50 mg/kg orally twice per day, trastuzumab 20 mg/kg intraperitoneally once every three days. The protocol:
as §1, §2, §3

Assay [8] has as its system CTG-0121 HER2 positive CRC PDX model. In words: CTG-0121 CRC PDX model, tumor growth inhibition. Conditions: study day 29; tucatinib 50 mg/kg orally twice per day, trastuzumab 20 mg/kg intraperitoneally once every three days. In kind it is in vivo, Mice. The protocol: as §1, §2, §3
Assay [9] concerns GXA 3039 HER2 positive gastric cancer PDX model. In words: GXA 3039 gastric cancer PDX model, tumor growth inhibition. Conditions: study day 29; tucatinib 50 mg/kg orally twice per day, trastuzumab 20 mg/kg intraperitoneally once every three days. In kind it is in vivo, Mice. The protocol: as §1, §2, §3
Assay [10] deals with Calu-3 NSCLC xenograft model. In words: Calu-3 NSCLC xenograft model, tumor growth inhibition. Conditions: study day 28; tucatinib 50 mg/kg orally twice per day for 21 days, trastuzumab 20 mg/kg intraperitoneally once every three days, from study day 7. In kind it is in vivo, Mice. How it is done:
as §1, §2, §4

The test system of assay [11] is CTG-0383 HER2 positive CRC PDX model. In words: CTG-0383 CRC PDX model, tumor growth inhibition. The assay is classed as in vivo, Mice. Conditions: study day 29; tucatinib 50 mg/kg orally twice per day, trastuzumab 20 mg/kg intraperitoneally once every three days. How it is done: as §1, §2, §3

The structures appear in SMILES notation.

`Cc1cc(Nc2ncnc3ccc(NC4=NC(C)(C)CO4)cc23)ccc1Oc1ccn2ncnc2c1` [Tucatinib, tucatinib]: the “Observed TGI (tumor growth inhibition index)” value in assay [1] is 50%; in [2] it was 91%; in assay [3], 65%; in assay [4], 48%; in assay [5], 110%; in [6], 49%. The “Observed TGI (tumor growth inhibition index)” value in assay [7] is 69%; in assay [8] it was 104%; in [9], 48%; in [10] it was 63%; in [11], 117%. Moreover, the “Response to tucatinib in vitro” value in the assay on Calu-3 cells and in the assay with NCI-H2170 cells was “good responses” each time.
